Assay results reported in patent US20080063668A1, “Nitroimidazole and terconazole composition and method” (priority 2006, published 2008).

Columns and labels:
Assay in all cases: Inhibition of bacteria growth, drug dilution tubes, anaerobic
Type in all cases: cell-based
Set-up in all cases: key: (+) for growth; (−) for no growth; (±) for suboptimal growth after an initial observation of growth
[1] = test system: Mobiluncus curtisii var. curtisii ATCC 35241
Experimental: (§1) Serial dilutions of tinidazole and terconazole were prepared by adding measured amounts of each substance to water (both individually and in combination). Seven bacterial organisms that are common pathogens in bacterial vaginosis were grown anaerobically in the medium as listed in Table 4 under a N2/H2/CO2 (85:5:10) head space atmosphere. [table] These cultures were diluted to a 0.5 McFarland standard prior to inoculation of drug dilution tubes. One (1) mL of the 0.5 McFarland preparation was inoculated to an anaerobically prepared test tube containing 0.8 mL of Difco anaerobic medium (DAMM) and 0.2 mL of appropriate diluted antimicrobial or antimicrobial combination for a total of 2 mL. The inoculated tubes were then incubated at 37° C. and monitored daily for growth. Growth was scored with a (+) for growth, (−) for no growth, and (±) for suboptimal growth after an initial observation of growth. Tinidazole is abbreviated as TNZ and terconazole is abbreviated as TER in Tables 5 through 11.

[2] = test system: Gardnerella vaginalis ATCC 14018
Experimental: as §1

[3] = test system: Bacteroides fragilis ATCC 25285
Experimental: as §1

CCS(=O)(=O)CCn1c([N+](=O)[O-])cnc1C [TNZ, 1-[2-(ethylsulfonyl)ethyl]-2-methyl-5-nitroimidazole]
growth ([1]; TNZ 2 μg/ml, DAY 1): (+) | growth ([1]; TNZ 2 μg/ml, DAY 2): (+) | growth ([1]; TNZ 2 μg/ml, DAY 3): (+) | growth ([1]; TNZ 2 μg/ml, DAY 4): (+) | growth ([1]; TNZ 2 μg/ml, DAY 5): (+) | growth ([1]; TNZ 3.9 μg/ml, DAY 1): (+) | growth ([1]; TNZ 3.9 μg/ml, DAY 2): (+) | growth ([1]; TNZ 3.9 μg/ml, DAY 3): (+) | growth ([1]; TNZ 3.9 μg/ml, DAY 4): (+) | growth ([1]; TNZ 3.9 μg/ml, DAY 5): (+) | growth ([1]; TNZ 7.8 μg/ml, DAY 1): (+) | growth ([1]; TNZ 7.8 μg/ml, DAY 2): (+) | growth ([1]; TNZ 7.8 μg/ml, DAY 3): (+) | growth ([1]; TNZ 7.8 μg/ml, DAY 4): (+) | growth ([1]; TNZ 7.8 μg/ml, DAY 5): (+) | growth ([1]; TNZ 15.6 μg/ml, DAY 1): (+) | growth ([1]; TNZ 15.6 μg/ml, DAY 2): (+) | growth ([1]; TNZ 15.6 μg/ml, DAY 3): (+) | growth ([1]; TNZ 15.6 μg/ml, DAY 4): (+) | growth ([1]; TNZ 15.6 μg/ml, DAY 5): (+) | growth ([1]; TNZ 31.3 μg/ml, DAY 1): (+) | growth ([1]; TNZ 31.3 μg/ml, DAY 2): (+) | growth ([1]; TNZ 31.3 μg/ml, DAY 3): (+) | growth ([1]; TNZ 31.3 μg/ml, DAY 4): (+) | growth ([1]; TNZ 31.3 μg/ml, DAY 5): (+) | growth ([1]; TNZ 62.5 μg/ml, DAY 1): (+) | growth ([1]; TNZ 62.5 μg/ml, DAY 2): (+) | growth ([1]; TNZ 62.5 μg/ml, DAY 3): (+) | growth ([1]; TNZ 62.5 μg/ml, DAY 4): (+) | growth ([1]; TNZ 62.5 μg/ml, DAY 5): (+) | growth ([1]; TNZ 125 μg/ml, DAY 1): (+) | growth ([1]; TNZ 125 μg/ml, DAY 2): (+) | growth ([1]; TNZ 125 μg/ml, DAY 3): (+) | growth ([1]; TNZ 125 μg/ml, DAY 4): (+) | growth ([1]; TNZ 125 μg/ml, DAY 5): (+) | growth ([1]; TNZ 250 μg/ml, DAY 1): (−) | growth ([1]; TNZ 250 μg/ml, DAY 2): (+) | growth ([1]; TNZ 250 μg/ml, DAY 3): (+) | growth ([1]; TNZ 250 μg/ml, DAY 4): (+) | growth ([1]; TNZ 250 μg/ml, DAY 5): (+) | growth ([1]; TNZ 500 μg/ml, DAY 1): (−) | growth ([1]; TNZ 500 μg/ml, DAY 2): (−) | growth ([1]; TNZ 500 μg/ml, DAY 3): (−) | growth ([1]; TNZ 500 μg/ml, DAY 4): (−) | growth ([1]; TNZ 500 μg/ml, DAY 5): (+) | growth ([2]; TNZ 2 μg/ml, DAY 1): (+) | growth ([2]; TNZ 2 μg/ml, DAY 2): (+) | growth ([2]; TNZ 2 μg/ml, DAY 3): (+) | growth ([2]; TNZ 2 μg/ml, DAY 4): (+) | growth ([2]; TNZ 2 μg/ml, DAY 5): (+) | growth ([2]; TNZ 3.9 μg/ml, DAY 1): (+) | growth ([2]; TNZ 3.9 μg/ml, DAY 2): (+) | growth ([2]; TNZ 3.9 μg/ml, DAY 3): (+) | growth ([2]; TNZ 3.9 μg/ml, DAY 4): (+) | growth ([2]; TNZ 3.9 μg/ml, DAY 5): (+) | growth ([2]; TNZ 7.8 μg/ml, DAY 1): (−) | growth ([2]; TNZ 7.8 μg/ml, DAY 2): (+) | growth ([2]; TNZ 7.8 μg/ml, DAY 3): (+) | growth ([2]; TNZ 7.8 μg/ml, DAY 4): (+) | growth ([2]; TNZ 7.8 μg/ml, DAY 5): (+) | growth ([2]; TNZ 15.6 μg/ml, DAY 1): (−) | growth ([2]; TNZ 15.6 μg/ml, DAY 2): (+) | growth ([2]; TNZ 15.6 μg/ml, DAY 3): (+) | growth ([2]; TNZ 15.6 μg/ml, DAY 4): (+) | growth ([2]; TNZ 15.6 μg/ml, DAY 5): (+) | growth ([2]; TNZ 31.3 μg/ml, DAY 1): (−) | growth ([2]; TNZ 31.3 μg/ml, DAY 2): (−) | growth ([2]; TNZ 31.3 μg/ml, DAY 3): (−) | growth ([2]; TNZ 31.3 μg/ml, DAY 4): (−) | growth ([2]; TNZ 31.3 μg/ml, DAY 5): (−) | growth ([2]; TNZ 62.5 μg/ml, DAY 1): (−) | growth ([2]; TNZ 62.5 μg/ml, DAY 2): (−) | growth ([2]; TNZ 62.5 μg/ml, DAY 3): (−) | growth ([2]; TNZ 62.5 μg/ml, DAY 4): (−) | growth ([2]; TNZ 62.5 μg/ml, DAY 5): (−) | growth ([2]; TNZ 125 μg/ml, DAY 1): (−) | growth ([2]; TNZ 125 μg/ml, DAY 2): (−) | growth ([2]; TNZ 125 μg/ml, DAY 3): (−) | growth ([2]; TNZ 125 μg/ml, DAY 4): (−) | growth ([2]; TNZ 125 μg/ml, DAY 5): (−) | growth ([2]; TNZ 250 μg/ml, DAY 1): (−) | growth ([2]; TNZ 250 μg/ml, DAY 2): (−) | growth ([2]; TNZ 250 μg/ml, DAY 3): (−) | growth ([2]; TNZ 250 μg/ml, DAY 4): (−) | growth ([2]; TNZ 250 μg/ml, DAY 5): (−) | growth ([2]; TNZ 500 μg/ml, DAY 1): (−) | growth ([2]; TNZ 500 μg/ml, DAY 2): (−) | growth ([2]; TNZ 500 μg/ml, DAY 3): (−) | growth ([2]; TNZ 500 μg/ml, DAY 4): (−) | growth ([2]; TNZ 500 μg/ml, DAY 5): (−) | growth ([3]; TNZ 2 μg/ml, DAY 1): (−) | growth ([3]; TNZ 2 μg/ml, DAY 2): (−) | growth ([3]; TNZ 2 μg/ml, DAY 3): (−) | growth ([3]; TNZ 2 μg/ml, DAY 4): (−) | growth ([3]; TNZ 2 μg/ml, DAY 5): (+) | growth ([3]; TNZ 3.9 μg/ml, DAY 1): (−) | growth ([3]; TNZ 3.9 μg/ml, DAY 2): (−) | growth ([3]; TNZ 3.9 μg/ml, DAY 3): (−) | growth ([3]; TNZ 3.9 μg/ml, DAY 4): (−) | growth ([3]; TNZ 3.9 μg/ml, DAY 5): (−) | growth ([3]; TNZ 7.8 μg/ml, DAY 1): (−) | growth ([3]; TNZ 7.8 μg/ml, DAY 2): (−) | growth ([3]; TNZ 7.8 μg/ml, DAY 3): (−) | growth ([3]; TNZ 7.8 μg/ml, DAY 4): (−) | growth ([3]; TNZ 7.8 μg/ml, DAY 5): (−) | growth ([3]; TNZ 15.6 μg/ml, DAY 1): (−) | growth ([3]; TNZ 15.6 μg/ml, DAY 2): (−) | growth ([3]; TNZ 15.6 μg/ml, DAY 3): (−) | growth ([3]; TNZ 15.6 μg/ml, DAY 4): (−) | growth ([3]; TNZ 15.6 μg/ml, DAY 5): (−) | growth ([3]; TNZ 31.3 μg/ml, DAY 1): (−) | growth ([3]; TNZ 31.3 μg/ml, DAY 2): (−) | growth ([3]; TNZ 31.3 μg/ml, DAY 3): (−) | growth ([3]; TNZ 31.3 μg/ml, DAY 4): (−) | growth ([3]; TNZ 31.3 μg/ml, DAY 5): (−) | growth ([3]; TNZ 62.5 μg/ml, DAY 1): (−) | growth ([3]; TNZ 62.5 μg/ml, DAY 2): (−) | growth ([3]; TNZ 62.5 μg/ml, DAY 3): (−) | growth ([3]; TNZ 62.5 μg/ml, DAY 4): (−) | growth ([3]; TNZ 62.5 μg/ml, DAY 5): (−) | growth ([3]; TNZ 125 μg/ml, DAY 1): (−) | growth ([3]; TNZ 125 μg/ml, DAY 2): (−) | growth ([3]; TNZ 125 μg/ml, DAY 3): (−) | growth ([3]; TNZ 125 μg/ml, DAY 4): (−) | growth ([3]; TNZ 125 μg/ml, DAY 5): (−) | growth ([3]; TNZ 250 μg/ml, DAY 1): (−) | growth ([3]; TNZ 250 μg/ml, DAY 2): (−) | growth ([3]; TNZ 250 μg/ml, DAY 3): (−) | growth ([3]; TNZ 250 μg/ml, DAY 4): (−) | growth ([3]; TNZ 250 μg/ml, DAY 5): (−) | growth ([3]; TNZ 500 μg/ml, DAY 1): (−) | growth ([3]; TNZ 500 μg/ml, DAY 2): (−) | growth ([3]; TNZ 500 μg/ml, DAY 3): (−) | growth ([3]; TNZ 500 μg/ml, DAY 4): (−) | growth ([3]; TNZ 500 μg/ml, DAY 5): (−)
